Experimental data published in patent publication US11214538B2, “Farnesoid X receptor agonists and uses thereof” (Metacrine, Inc., priority 2015, dated 2022).

Columns and labels:
hFXR [1] = target: T1, hFXR (Homo sapiens, UniProt Q96RI1); assay: In Vitro FXR Assay (PGL3), luciferase reporter in transfected CV-1 cells; format: cell-based; conditions: CV-1 cells transfected with hFXR, hRXR, PGL3-ECRE*6-luc; 18 hrs incubation; luminescence
T1 construct: expressed in transfected cells; host or cells: CV-1 cells
T1 sequence (Q96RI1 1-486): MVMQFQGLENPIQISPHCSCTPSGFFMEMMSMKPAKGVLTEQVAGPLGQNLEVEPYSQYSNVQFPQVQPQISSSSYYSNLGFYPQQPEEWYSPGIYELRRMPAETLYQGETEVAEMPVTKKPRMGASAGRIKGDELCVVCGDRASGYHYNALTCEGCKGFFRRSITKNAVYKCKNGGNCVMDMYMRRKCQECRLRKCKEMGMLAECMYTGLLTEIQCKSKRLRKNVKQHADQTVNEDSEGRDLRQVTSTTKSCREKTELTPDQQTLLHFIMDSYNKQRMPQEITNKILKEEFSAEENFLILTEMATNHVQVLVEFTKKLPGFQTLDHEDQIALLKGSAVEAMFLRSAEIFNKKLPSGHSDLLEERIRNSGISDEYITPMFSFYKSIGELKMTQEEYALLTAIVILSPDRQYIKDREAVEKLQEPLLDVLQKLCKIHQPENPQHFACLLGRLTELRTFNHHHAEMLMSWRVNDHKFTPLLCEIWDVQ
T1 sequence (P19793 1-462 partner): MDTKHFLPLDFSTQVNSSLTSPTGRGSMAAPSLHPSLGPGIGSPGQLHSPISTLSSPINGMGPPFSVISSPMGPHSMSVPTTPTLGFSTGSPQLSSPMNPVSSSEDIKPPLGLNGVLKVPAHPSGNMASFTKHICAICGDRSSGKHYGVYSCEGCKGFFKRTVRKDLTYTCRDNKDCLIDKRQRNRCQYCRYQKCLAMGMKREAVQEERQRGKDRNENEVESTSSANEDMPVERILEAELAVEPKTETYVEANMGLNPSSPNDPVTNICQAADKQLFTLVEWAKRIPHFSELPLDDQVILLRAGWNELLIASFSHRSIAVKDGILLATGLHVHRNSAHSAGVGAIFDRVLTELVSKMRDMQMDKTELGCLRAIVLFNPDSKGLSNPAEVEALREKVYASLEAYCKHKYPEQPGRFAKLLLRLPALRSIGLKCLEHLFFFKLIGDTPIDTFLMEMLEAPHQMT
Protocol: Example B-1: In Vitro FXR Assay (PGL3)
CV-1 cells were seeded at a density of 2,000,000 cells in a T175 flask with DMEM+10% charcoal double-stripped FBS and incubated at 37° C. in a 5% CO2 for 18 h (O/N).
After 18 h of incubation, the medium in the T175 flask was changed with fresh DMEM+10% charcoal super-stripped serum.
To prepare the transfection reaction mixture, the transfection reagent (X-tremeGENE HP from Roche, Cat #06 366 236 001) was added in to a 1.5 mL microcentrifuge tube labelled “A” at a ratio of 1:3 (DNA in g: transfection reagent in μL). OptiMEM medium (Life Technologies, Cat #31985-062) was added accordingly to provide a total volume of 1 mL. The transfection reaction mixture was then briefly vortexed and incubated at room temperature for 5 minutes.
In a separate 1.5 mL microcentrifuge tube labelled “B”, 100 μL OptiMEM and plasmids XPD90Gal pCMXhFXRfl, pCMXhRXRfl+PGL3-ECRE*6-luc+CMX-YFP in the ratio 2 g: 2 g:18 g:3 g were added. This microcentrifuge tube “B” was then briefly vortexed and incubated at room temperature for 5 minutes.
The total volume in tube labelled “A” was then transferred in to tube labelled “B.” The mixture was then briefly vortexed and the transfection:DNA complex was then incubated for about 15-20 minutes at room temperature.
Following incubation, the transfection reagent/DNA mixture complex was then added to cells in the T175 flask and the cells were incubated at […] (O/N) at 37° C. in 5% CO2.
In a 96 well plate, a half logarithmic serial dilution was prepared. OptiMEM was used as the diluent. Using any of one of the compounds described herein, a compound stock solution of 10 mM was prepared. An initial 1:100 dilution was made into the first well for a final concentration of 100 μM. The final concentrations in the 96-well plate was prepared by using a multichannel pipette to transfer 5 μL of the diluted compound to 384-well plate in quadruplicate.
Cells in T175 flask were trypsinized and cells were resuspending in 40 mL phenol red free DMEM+10% charcoal super-stripped FBS. Typically, one T175 flask was sufficient to seed two 384 well plates. CV-1 cells were seeded at 45 μL cell suspension/well using a multichannel pipet or a 384 multidrop dispenser. The cells were then incubated for 18 hrs, overnight.
After removing the plates from the incubator, the medium was flicked out of plate and 384 well plate was turned upside down onto paper towel. The remaining medium was gently tapped out. 15 μL lysis buffer was then added to each well using a multichannel pipet or a 384 well multi-drop dispenser. After incubation for 10 minutes at room temperature on shaker, 30 μL Luciferase buffer was added to each well. Luminescence counts were taken immediately using the Perkin Elmer Envision.
The ability of the compounds disclosed herein to […] FXR activity was quantified and the respective EC50 value was determined. Fex=fexaramine.

hFXR [2] = target: T1, hFXR; assay: In Vitro FXR Assay (TK), luciferase reporter in transfected CV-1 cells; format: cell-based; conditions: CV-1 cells transfected with hFXR, hRXR, TK-ECRE-luc; 18 hrs incubation; luminescence; compounds with a maximum efficacy of <25% of the Fexaramine control classified as '+'
Protocol: Example B-2: In Vitro FXR Assay (TK)
CV-1 cells were seeded at a density of 2,000,000 cells in a T175 flask with DMEM+10% charcoal double-stripped FBS and incubated at 37° C. in 5% CO2 for 18 h (O/N).
After 18 h of incubation, the medium in the T175 flask was changed with fresh DMEM+10% charcoal super-stripped serum. In a polypropylene tube, 2500 μL OptiMEM (Life Technologies, Cat #31985-062) was combined with expression plasmids for hFXR, hRXR, TK-ECRE-luc and pCMX-YFP. The tube was then briefly vortexed and incubated at room temperature for 5 minutes. Transfection reagent (X-tremeGENE HP from Roche, Cat #06 366 236 001) was added to the OptiMEM/plasmid mixture vortexed and incubated at room temperature for 20 minutes. Following incubation, the transfection reagent/DNA mixture complex was added to cells in the T175 flask and the cells were incubated at 37° C. in 5% CO2 for 18 h (O/N).
Compounds were serially diluted in DMSO and added to transfected CV-1 cells. The cells were then incubated for 18 hrs. The next day cells were lysed and examined for luminescence.

| Structure (SMILES) | Cmpd/Fex (ratio of the EC50 for the test compound relative to the EC50 of the Fexaramine control) (hFXR [1]) | EC50 (hFXR [2]) |
| --- | --- | --- |
| COC(=O)CNc1cccc(N(Cc2ccc(-c3ccc(N(C)C)cc3)cc2)C(=O)C2CCCCC2)c1 [Compound 9, Methyl 2-((3-(N-((4′-(dimethylamino)-[1,1′-biphenyl]-4-yl)methyl)cyclohexanecarboxamido)phenyl)amino)acetate] | ++ (‘++’ means Cmpd/Fex >10 & <100) | ≤ 3 µM |
| CN(C)c1ccc(-c2ccc(CN(C(=O)C3CCCCC3)c3cccc(-c4ccccc4)c3)cc2)cc1 [Compound 18, N-([1,1′-Biphenyl]-3-yl)-N-((4′-(dimethylamino)-[1,1′-biphenyl]-4-yl)methyl)cyclohexanecarboxamide] | + (‘+’ means Cmpd/Fex >100) | 3 to 10 µM |
| CN(C)c1ccc(-c2ccc(CN(C(=O)C3CCCCC3)c3cccc(/C=C/c4ncco4)c3)cc2)cc1 [Compound 14, (E)-N-((4′-(Dimethylamino)-[1,1′-biphenyl]-4-yl)methyl)-N-(3-(2-(oxazol-2-yl)vinyl)phenyl)cyclohexanecarboxamide] | +++ (‘+++’ means Cmpd/Fex <10) | ≤ 3 µM |
| CN(C)C(=O)/C=C/c1cccc(N(Cc2ccc(-c3ccc(N(C)C)cc3)cc2)C(=O)C2CCCCC2)c1 [Compound 13, (E)-N-(3-(3-(Dimethylamino)-3-oxoprop-1-en-1-yl)phenyl)-N-((4′-(dimethylamino)-[1,1′-biphenyl]-4-yl)methyl)cyclohexanecarboxamide] | + (‘+’ means Cmpd/Fex >100) | ≤ 3 µM |
